Experiment [1] concerns the target T1, Short transient receptor potential channel 4 (Mus musculus, UniProt Q9QUQ5).
T1 sequence (Q9QUQ5 whole entry): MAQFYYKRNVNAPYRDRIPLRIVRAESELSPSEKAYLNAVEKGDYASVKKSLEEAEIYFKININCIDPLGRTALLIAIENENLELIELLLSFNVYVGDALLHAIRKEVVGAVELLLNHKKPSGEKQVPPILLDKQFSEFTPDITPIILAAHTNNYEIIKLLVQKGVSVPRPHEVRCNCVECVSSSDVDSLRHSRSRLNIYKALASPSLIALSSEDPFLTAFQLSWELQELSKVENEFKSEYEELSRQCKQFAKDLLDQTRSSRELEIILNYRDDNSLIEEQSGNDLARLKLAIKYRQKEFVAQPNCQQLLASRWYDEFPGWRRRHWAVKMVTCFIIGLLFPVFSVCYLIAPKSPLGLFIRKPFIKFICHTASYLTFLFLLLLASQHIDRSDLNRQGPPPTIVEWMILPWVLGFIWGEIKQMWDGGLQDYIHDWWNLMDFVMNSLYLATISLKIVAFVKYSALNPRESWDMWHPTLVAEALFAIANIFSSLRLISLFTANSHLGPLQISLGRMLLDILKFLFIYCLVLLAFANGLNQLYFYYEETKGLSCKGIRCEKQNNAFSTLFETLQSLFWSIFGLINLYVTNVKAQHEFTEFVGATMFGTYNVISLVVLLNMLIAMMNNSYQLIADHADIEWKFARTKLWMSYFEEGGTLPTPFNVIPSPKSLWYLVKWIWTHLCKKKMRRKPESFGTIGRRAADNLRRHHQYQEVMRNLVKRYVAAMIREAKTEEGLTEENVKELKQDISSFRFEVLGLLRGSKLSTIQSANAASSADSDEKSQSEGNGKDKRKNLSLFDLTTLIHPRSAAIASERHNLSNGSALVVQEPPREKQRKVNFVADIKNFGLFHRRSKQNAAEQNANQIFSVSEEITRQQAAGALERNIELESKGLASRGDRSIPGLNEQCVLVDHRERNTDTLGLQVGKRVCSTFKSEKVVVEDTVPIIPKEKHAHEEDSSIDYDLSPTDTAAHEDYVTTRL
Description: block of DAMGO-driven TRPC4 calcium entry – cell-based, HEK293 TRPC4/mu-opioid, Fluo-4 calcium, dose response (AID 434942).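 Note: potency of inhibitors blocking the TRPC4 calcium response.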 The experiment is classed as functional.

Experiment [2] concerns the target T2, Microphthalmia-associated transcription factor (Homo sapiens, UniProt O75030).
T2 sequence (O75030 whole entry): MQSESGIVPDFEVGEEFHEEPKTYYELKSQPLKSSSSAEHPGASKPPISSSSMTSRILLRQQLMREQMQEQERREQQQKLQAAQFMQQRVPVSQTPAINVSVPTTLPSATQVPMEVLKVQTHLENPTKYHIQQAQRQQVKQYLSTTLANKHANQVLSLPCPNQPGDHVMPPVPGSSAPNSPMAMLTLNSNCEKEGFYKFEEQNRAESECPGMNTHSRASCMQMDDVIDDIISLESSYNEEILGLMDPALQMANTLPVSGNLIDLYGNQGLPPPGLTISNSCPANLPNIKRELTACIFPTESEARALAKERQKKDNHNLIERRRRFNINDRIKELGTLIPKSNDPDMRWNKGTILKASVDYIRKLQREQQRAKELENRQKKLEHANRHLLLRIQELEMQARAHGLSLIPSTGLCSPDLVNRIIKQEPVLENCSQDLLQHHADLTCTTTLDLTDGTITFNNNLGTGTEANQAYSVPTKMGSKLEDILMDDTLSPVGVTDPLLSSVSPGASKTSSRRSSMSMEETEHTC
Description: reducers of TRPM1 reporter luminescence, concentration series – cell-based, SK-MEL-5, cherry-picked, set 3, MITF inhibitor project, dose response (AID 493073).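 Note: SK-MEL-5 melanoma cells with luciferase driven by the MITF target TRPM1 promoter.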 Format: functional.

Experiment [3] has as its target T3, RNA-binding protein pos-1 (Caenorhabditis elegans, UniProt G5EF15).
T3 sequence (G5EF15 whole entry): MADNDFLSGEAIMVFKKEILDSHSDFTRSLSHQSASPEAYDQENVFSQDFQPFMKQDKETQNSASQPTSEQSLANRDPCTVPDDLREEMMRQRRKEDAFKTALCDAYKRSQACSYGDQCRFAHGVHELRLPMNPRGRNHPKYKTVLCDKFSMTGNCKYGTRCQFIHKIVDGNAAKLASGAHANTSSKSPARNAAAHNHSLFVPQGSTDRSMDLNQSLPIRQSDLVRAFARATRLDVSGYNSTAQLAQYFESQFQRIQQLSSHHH
Description: disruptors of C. elegans POS-1 RNA interaction – biochemical, fluorescence polarization, dose response (AID 1964).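 Note: purified POS-1 fused to maltose binding protein made in E. coli; potency of compounds blocking POS-1 binding to fluorescent RNA.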

Structures are written as SMILES. Calls of active or inactive are those of the source.

As for `CC(C)c1ccc(S(=O)(=O)/N=C2\C=C(NS(=O)(=O)c3ccccc3)C(=O)c3ccccc32)cc1`, in experiment [1], the EC50 is 7.5 µM (active).
With `O=[N+]([O-])c1ccc(/C=N/n2cnc3ccccc32)s1`, the AC50 in experiment [2] was 6.25 µM (active). In experiment [3], the EC50 was > 300 µM (inconclusive).

In general, EC50 refers to the concentration giving half of the maximal effect. One may read the AC50 as the concentration giving half of the maximal activity seen.
